Assay results taken from US20080171893A1, “Isotopically labeled alpha-keto acids and esters” (Spectra Gases, Inc., priority 2006, published 2008).

Legend:
[1] = Concentration study: stability of pyruvic acid solutions in water at higher concentrations; type: physicochemical; parameters: unit not given here; details: light, about 22° C. to about 26° C.
Description: Each of these commercial solutions were subjected to light for 6-weeks at temperatures ranging from about 22° C. to about 26° C. At each of the concentrations listed below, it was discovered that the pyruvic acid solutions were stable.

[2] = background statement; cited from earlier work
[3] = Titration of aqueous sample 4 with sodium hydroxide, composition by HPLC; type: physicochemical; details: sample 4 titrated with sodium hydroxide to pH of about 6.2
Description: The molarity of sample 4 was confirmed to be 0.025M by titrating the aqueous sample with sodium hydroxide. […] It was also discovered that at pHs greater than 5.8, such as at a pH of about 6.2, some of the pyruvic acid was present in the form of a dimerized sodium salt. […] As such, it was discovered that to minimize dimmer formation, it may be necessary to control the pH of [1-^13C]pyruvate solutions, and in particular, any aqueous solution should be maintained at a pH of about 6.5 or less, more preferably 6.0 or less, and even more preferably 5.8 or less.

[4] = Shelf storage stability of [1-^13C]pyruvic acid in water, by ^1H and ^13C NMR; type: physicochemical; details: 0.025M in water
Description: Samples of isotopically labeled [1-^13C]pyruvic acid, having Formula VI and synthesized as discussed immediately below, were subjected to various conditions as depicted in Table 1, in order to establish the compound's shelf storage stability.
The resulting [1-^13C]pyruvic acid was tested as follows in Table 1:
^1H and ^13C NMR spectra of the distilled [1-^13C]pyruvic acid in water (0.025M) were acquired at the onset of the study and prior to exposing the samples to the various conditions specified in Table 1. ^1H and ^13C NMR spectra were again acquired for each of the samples after being exposed to the aforementioned conditions on a weekly basis for 12-weeks. The spectra acquired after exposure were compared visually and appeared to remain unchanged as compared with the spectra acquired prior to exposure, i.e. the spectra were as expected for [1-^13C]pyruvic acid in water. As such, it was concluded that each of the samples were shelf stable. Similarly, ^1H and ^13C NMR spectra acquired after 17-weeks of exposure remained unchanged as compared with the spectra acquired prior to exposure.

[5] = Sample 1: −10° C., dark, NMR spectra unchanged
[6] = Sample 3: room temperature (about 22° C. to about 26° C.), dark
[7] = Sample 4: room temperature (about 22° C. to about 26° C.), light

| Stability after 6-weeks ([1]; concentration 2.3 in water) | Stability after 6-weeks ([1]; concentration 2.8 in water) | Stability after 6-weeks ([1]; concentration 3.8 in water) | Stability after 6-weeks ([1]; concentration 5.7 in water) | Stability after 6-weeks ([1]; concentration 11.3 in water) | Content of dimerized [1-^13C]pyruvate salt by HPLC [3] | Content of sodium [1-^13C]pyruvate by HPLC [3] | Share of the pyruvic acid accounted for by the dimerized salt [3] | Shelf stability, 12 weeks [4, 5] | Shelf stability, 17 weeks [4, 5] | Shelf stability, 12 weeks ([4]; Sample 2: 4° C., dark) | Shelf stability, 17 weeks ([4]; Sample 2: 4° C., dark) | Shelf stability, 12 weeks [4, 6] | Shelf stability, 17 weeks [4, 6] | Shelf stability, 12 weeks [4, 7] | Shelf stability, 17 weeks [4, 7] | Compound | Solubility in water [2] |
| --- | --- | --- | --- | --- | --- | --- | --- | --- | --- | --- | --- | --- | --- | --- | --- | --- | --- |
| Stable | Stable | Stable | Stable | Stable | – | – | – | – | – | – | – | – | – | – | – | CC(=O)C(=O)O [Formula VIB, 2-oxopropanoic acid] | soluble in water |
| – | – | – | – | – | 2-4% | 89% | 4-6% | Stable | Stable | Stable | Stable | Stable | Stable | Stable | Stable | CC(=O)[13C](=O)O [[1-^13C]pyruvic acid] | – |
